Columns and labels:
[1] = molecular target: cutinase (Fusarium vanettenii, UniProt P00590); format: biochemical, Fusarium solani pisi; conditions: read-out: Michaelis constant (KM)
Method: The release of PNP was followed using absorbance spectroscopy.
Spectrophotometric measurement was performed at room temperature using BECKMAN DU-640 spectrophotometer (BECKMAN COULTER, INC., Fullerton, Calif.).

[2] = molecular target: T1, GST (Rattus norvegicus, UniProt P08010); conditions: corresponds to affinity of 100 μM
Excerpt: For example, glutathione-S-transferase (GST) is an enzyme which is commonly used as an affinity handle for the purification of recombinant proteins. The target protein is expressed and purified as a GST fusion and may then be treated with a protease to remove the GST domain (Smith and Johnson, 1988).

[3] = molecular target: T1, GST; conditions: read-out: affinity of binding to GST; cited from earlier work
[4] = molecular target: T2, GST (Schistosoma japonicum, UniProt P08515); conditions: bound complex with GST
[5] = molecular target: T2, GST; assay: SPR immobilization of GST to self-assembled monolayer; format: binding; conditions: monolayer from 1:99 mixture of alkanethiol 13 and penta(ethylene glycol) alkanethiol; GST 100 μM, PBS pH 7.4

T1 sequence (P08010 2-218 limits assumed): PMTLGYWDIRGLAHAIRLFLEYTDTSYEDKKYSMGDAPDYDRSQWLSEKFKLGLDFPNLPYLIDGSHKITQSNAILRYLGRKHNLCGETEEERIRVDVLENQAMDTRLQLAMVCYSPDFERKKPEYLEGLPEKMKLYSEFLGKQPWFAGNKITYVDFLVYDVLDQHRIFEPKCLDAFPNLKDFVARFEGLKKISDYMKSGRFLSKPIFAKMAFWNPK
T2 sequence (P08515 2-218 limits assumed): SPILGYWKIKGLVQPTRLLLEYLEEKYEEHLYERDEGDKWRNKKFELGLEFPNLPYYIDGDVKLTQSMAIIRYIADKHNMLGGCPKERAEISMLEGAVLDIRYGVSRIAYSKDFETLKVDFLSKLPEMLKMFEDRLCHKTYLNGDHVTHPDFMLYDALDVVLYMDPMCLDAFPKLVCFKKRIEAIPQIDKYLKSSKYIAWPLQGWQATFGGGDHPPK
cutinase, sequence (P00590 17-230): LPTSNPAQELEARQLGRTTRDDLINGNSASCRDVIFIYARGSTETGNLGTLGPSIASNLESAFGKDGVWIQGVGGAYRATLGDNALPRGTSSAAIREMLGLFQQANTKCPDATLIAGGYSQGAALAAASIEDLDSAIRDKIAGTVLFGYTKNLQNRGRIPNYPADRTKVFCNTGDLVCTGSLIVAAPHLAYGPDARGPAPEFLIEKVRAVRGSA

CCCC(=O)Oc1ccc([N+](=O)[O-])cc1 [4-nitrophenyl butyrate]
Km [1]: 1000 µM

N[C@@H](CCC(=O)N[C@@H](CS)C(=O)NCC(=O)O)C(=O)O [glutathione]
lifetime of the bound complex [2]: about one
Kd [3]: ~100 µM

Glutathione-dichtoroquinone conjugate [formula (6)]
first-order rate constant of irreversible cross-linking reaction [4]: 0.11 ± 0.03 min⁻¹

Hydroquinone-glutathione-EG5-alkanethiol [compound 13]
binding of GST to monolayer [5]: this binding was irreversible
